{
  "source": "patent US8945641B2",
  "about": "“Use of gum arabic for improving the growth and survival of bifidobacteria” (Compagnie Gervais Danone, priority 2006, dated 2015)",
  "system": "Bifidobacterium animalis ssp lactis I-2494",
  "assay": "Growth and survival of bifidobacteria in a drinking yogurt with yogurt ferments, acacia gum and/or cysteine, storage at 10° C.",
  "format": "cell-based",
  "settings": "acacia gum 0.8%",
  "source_text": "A drinking yogurt (2.8% of proteins) is manufactured by reconstitution of milk powder, and supplemented with 0.8% (by weight) of acacia gum, as described in Example 1 above. This type of product is chosen for the trials since it is the one that poses the biggest problems in terms of maintaining the population of bifidobacteria during storage. The reconstituted milk, supplemented with acacia gum, is heat treated as described in Example 1 above, and homogenized (150-200 bar).\nAfter cooling to 38-40° C., Streptococcus thermophilus and Lactobacillus delbrueckii ssp. Bulgaricus are added in an amount of 5×10^6 CFU/ml of Streptococcus thermophilus, 5×10^6 CFU/ml of Lactobacillus bulgaricus. Bifidobacterium animalis ssp lactis I-2494 is added in the form of a ferment for direct inoculation, such as those described in application FR 0606421 supplemented with cysteine or not. The supplemented ferment used corresponds to the addition of 1.92×10^7 CFU/ml of Bifidobacterium animalis and 6.9 mg/l of cysteine.\nAfter inoculation, the fermentation is carried out at 38° C., and monitored using the CINAC® system (YSEBAERT) until the curd settling pH is obtained (4.3<pH<4.4).\nThe curd settling is obtained by drawing off and cooling between 10-20° C., and then stirring.\nThe product is then packaged in pots and then placed in a cold tunnel (4° C.).\nThe populations are then counted at 2 h of storage at 15° C., and then 2, 8 14, 28 and 37 days of storage at 10° C.\nThe same experiment was repeated with a product containing 2.7% of proteins, containing 0.8% of acacia gum, and inoculated with a ferment supplemented with cysteine, corresponding to the addition of 1.90×10^7 CFU/ml of bifidobacteria animalis and 7 mg/l of cysteine.",
  "data": [
    {"smiles": "N[C@@H](CS)C(=O)O", "note": "[Control Cysteine, cysteine]", "values": [
      {"measurement": "Number of Bifidus at 2 h of storage", "setting": "2 h of storage at 15° C., drinking yogurt 2.8% proteins, cysteine 6.9 mg/l where present", "result": "2.1E+8", "unit": "CFU/g"},
      {"measurement": "Number of Bifidus at D +2", "setting": "D+2, repeat, product 2.7% proteins, cysteine 7 mg/l where present", "result": "1.05E+08", "unit": "CFU/g"},
      {"measurement": "Number of Bifidus at D +2", "setting": "D+2 at 10° C., 2.8% proteins, cysteine 6.9 mg/l where present", "result": "1.2E+8", "unit": "CFU/g"},
      {"measurement": "Number of Bifidus at D +8", "setting": "D+8, repeat, 2.7% proteins, cysteine 7 mg/l where present", "result": "9.00E+07", "unit": "CFU/g"},
      {"measurement": "Number of Bifidus at D +8", "setting": "D+8 at 10° C., 2.8% proteins, cysteine 6.9 mg/l where present", "result": "1.8E+8", "unit": "CFU/g"},
      {"measurement": "Number of Bifidus at D +14", "setting": "D+14, repeat, 2.7% proteins, cysteine 7 mg/l where present", "result": "7.00E+07", "unit": "CFU/g"},
      {"measurement": "Number of Bifidus at D +14", "setting": "D+14 at 10° C., 2.8% proteins, cysteine 6.9 mg/l where present", "result": "1.4E+8", "unit": "CFU/g"},
      {"measurement": "Number of Bifidus at D +21", "setting": "D+21, repeat, 2.7% proteins, cysteine 7 mg/l where present", "result": "4.00E+07", "unit": "CFU/g"},
      {"measurement": "Number of Bifidus at D +28", "setting": "D+28, repeat, 2.7% proteins, cysteine 7 mg/l where present", "result": "2.00E+07", "unit": "CFU/g"},
      {"measurement": "Number of Bifidus at D +28", "setting": "D+28 at 10° C., 2.8% proteins, cysteine 6.9 mg/l where present", "result": "8.8E+7", "unit": "CFU/g"},
      {"measurement": "Number of Bifidus at D +35", "setting": "D+35, repeat, 2.7% proteins, cysteine 7 mg/l where present", "result": "6.00E+06", "unit": "CFU/g"},
      {"measurement": "Number of Bifidus at D +37", "setting": "D+37 at 10° C., 2.8% proteins, cysteine 6.9 mg/l where present", "result": "7.8E+7", "unit": "CFU/g"},
      {"measurement": "Number of Bifidus at D +52", "setting": "D+52, repeat, 2.7% proteins, cysteine 7 mg/l where present", "result": "3.00E+06", "unit": "CFU/g"}
    ]}
  ]
}
